Reference: patent publication US4824669A, “Formulations of coenzyme Q10 for intravenous use” (Board of Regents, The University of Texas System, priority 1987, dated 1989)
Read-outs that look alike come from different tables or passages of the source.

Experiments:
[1] = solid particle dispersions in aqueous medium; cited from earlier work
[2] = soybean oil in soft gelatin capsules; cited from earlier work
[3] = 100 mg daily (3 capsules of 33.3 mg in soybean oil), patients; cited from earlier work
[4] = clinical use; cited from earlier work
[5] = blood CoQ10 levels expected after intravenous administration of CoQ10-fat emulsions; assay type: in vivo, human; details: i.v., control 5 mg
Method: The intravenous formulations of the present invention may be used, for example, to introduce 15 mg, 10 mg and 5 mg of CoQ10 into the total body blood volume by intravenous administration of about 500 ml containing 30 μg/ml, 15 μg/ml and 7.5 μg/ml, respectively, of CoQ10. On the basis that the control blood level of CoQ10 /total body volume is 5 mg, then the total body volume would contain 20 mg, 15 mg, and 10 mg, respectively, after the intravenous administration of the three formulations.
These three particular exemplary formulations of the present invention will allow the introduction of CoQ10 into the blood of patients to levels of 2, 3 and 4 μg/ml, respectively, for a total amount of CoQ10 /total body volume of blood of, for example, about 10, 15 and 20 mg, respectively.

[6] = visible separation / stability of CoQ10 in commercial fat emulsions; assay type: physicochemical
Method: A preferred technique of preparing formulations of the present invention involved adding 1 ml of a fat emulsion such as Intralipid, Liposyn, Soyacal, and Travemulsion to each of three tubes. With a microsyringe, 1 μl of soybean oil containing 30 μg, 15 μg and 7.5 μg of CoQ10, respectively, was added to each of the three tubes containing 1 ml the fat emulsion. The microliter of soybean oil containing these three amounts of CoQ10 was easily visible by the yellow color on the surface of the fat emulsion. The contents of these tubes were cooled to less than about 5° C. and were then sonicated for about 5 seconds in an ice bath. The sonicated CoQ10 -fat emulsion was then drawn into a first syringe through the syringe needle. The needle of the first syringe was then connected to the needle of a second syringe. The CoQ10 -fat emulsion was then passed back and forth through the needles from the first syringe to the second syringe, and this mixing was repeated about 10 times. The needles of the two syringes were connected through a rubber stopper or a tubing, which sufficed for this laboratory scale preparation.

[7] = oral, cited from earlier work; for absorption (in words): human subjects
[8] = blood levels on daily oral administration of CoQ10 capsules to patients; assay type: in vivo, human; details: if a blood level of 3 μg/ml of whole blood is achieved on oral therapy
Method: It is known from the existing clinical data from the daily oral administration of 100 mg of CoQ10 to patients (3 capsules of 33.3 mg each in soybean oil), that blood levels in the range of about 2-4 μg/ml whole blood may be achieved. These blood levels on daily oral administration of 3 capsules vary between about 1.5 and 4 μg/ml whole blood, depending upon the initial control level, the variation of oral absorption, patient compliance, etc. If a blood level of 3 μg/ml of whole blood is achieved on therapy, the amount of CoQ10 in the total blood volume would be about 15 mg. The gastrointestinal absorption of CoQ10 from 3 capsules/day is about 15% or 15-20% according to Lucker et al. (citation under Background of the Invention). However, as mentioned earlier herein, oral administration of CoQ10 is undependable and sometimes difficult.

[9] = oral, coronary artery by-pass graft surgery; Sunamori et al.; cited from earlier work

- CoQ10 in total body blood volume after intravenous administration ([5]; about 500 ml containing 7.5 μg/ml): 10 mg
- CoQ10 in total body blood volume after intravenous administration ([5]; about 500 ml containing 30 μg/ml): 20 mg
- separation of CoQ10 from the emulsion ([6]; 30, 15 and 7.5 μg/ml of commercial fat emulsion, sonicated and passed through syringe needles): did not visibly separate to the surface
- stability of emulsions at high CoQ10 level ([6]; CoQ10 levels above about 30 μg/ml): tend to be unstable
- amount of CoQ10 in the total blood volume [8]: about 15 mg
SMILES: COC1=C(OC)C(=O)C(C/C=C(\C)CC/C=C(\C)CC/C=C(\C)CC/C=C(\C)CC/C=C(\C)CC/C=C(\C)CC/C=C(\C)CC/C=C(\C)CC/C=C(\C)CCC=C(C)C)=C(C)C1=O [CoQ10, 2,3-dimethoxy-5-methyl-6-decaprenyl benzoquinone]
- settling on standing [1]: particles containing CoQ10 fall to the bottom of the container
- stability in encapsulated soybean oil [2]: up to 6 years
- blood levels on daily oral administration [3]: 2-4 μg/ml whole blood
- clinical safety record [4]: clinical record of safety of over a decade
- stability of simple combination with commercial fat emulsion ([6]; simple combination of CoQ10 with one of the commercial fat emulsions): unstable formulations from which the CoQ10 would too readily separate
- absorption (in words) [7]: very slow absorption
- absorption (in words) ([7]; listed as coenzyme Q10): slow and inefficient
- overall absorption of orally administered CoQ10 ([7]; human, Lucker et al.): 10-20%
- orally administered dose recovered from the feces ([7]; study period of 10 days): ≤ 62%
- tissue concentrations of CoQ10 (in words) [9]: failed to allow satisfactory tissue concentrations of CoQ10
